Test results: the NIST ThermoML archive (doi:10.1021/je700261b)

Experiment: xn = mol fraction of the nth substance listed
Conditions: Liquid

CCCCO [butan-1-ol] + O=C=O
Conditions | mass density [kg/m3]
313.1 K, 1008 kPa, x2 = 0.0251 | 798.08
313.1 K, 2011 kPa, x2 = 0.0251 | 798.9
313.1 K, 3006 kPa, x2 = 0.0251 | 799.7
313.1 K, 4012 kPa, x2 = 0.0251 | 800.54
313.1 K, 5008 kPa, x2 = 0.0251 | 801.32
313.1 K, 6013 kPa, x2 = 0.0251 | 802.14
313.1 K, 7004 kPa, x2 = 0.0251 | 802.94
313.1 K, 8023 kPa, x2 = 0.0251 | 803.75
313.1 K, 9037 kPa, x2 = 0.0251 | 804.53
313.1 K, 9990 kPa, x2 = 0.9698 | 711.97
313.1 K, 10005 kPa, x2 = 0.0251 | 805.29
313.1 K, 11011 kPa, x2 = 0.0251 | 806.08
313.1 K, 11014 kPa, x2 = 0.9698 | 740.16
313.1 K, 12018 kPa, x2 = 0.0251 | 806.83
313.1 K, 12040 kPa, x2 = 0.9698 | 761.46
313.1 K, 12987 kPa, x2 = 0.9698 | 777.57
313.1 K, 13003 kPa, x2 = 0.0251 | 807.56
313.1 K, 14007 kPa, x2 = 0.0251 | 808.31
313.1 K, 14020 kPa, x2 = 0.9698 | 792.52
313.1 K, 15009 kPa, x2 = 0.0251 | 809.03
313.1 K, 15028 kPa, x2 = 0.9698 | 805.22
313.1 K, 16004 kPa, x2 = 0.0251 | 809.77
313.1 K, 16029 kPa, x2 = 0.9698 | 816.46
313.1 K, 17000 kPa, x2 = 0.9698 | 826.34
313.1 K, 17005 kPa, x2 = 0.0251 | 810.49
313.1 K, 18019 kPa, x2 = 0.0251 | 811.19
313.1 K, 18024 kPa, x2 = 0.9698 | 835.89
313.1 K, 19019 kPa, x2 = 0.0251 | 811.89
313.1 K, 19027 kPa, x2 = 0.9698 | 844.46
313.1 K, 20020 kPa, x2 = 0.0251 | 812.59
313.1 K, 20021 kPa, x2 = 0.9698 | 852.41
313.1 K, 21013 kPa, x2 = 0.9698 | 859.87
313.1 K, 21027 kPa, x2 = 0.0251 | 813.29
313.1 K, 22005 kPa, x2 = 0.0251 | 813.97
313.1 K, 22032 kPa, x2 = 0.9698 | 867.02
313.1 K, 23006 kPa, x2 = 0.9698 | 873.5
313.1 K, 23011 kPa, x2 = 0.0251 | 814.69
313.1 K, 24004 kPa, x2 = 0.0251 | 815.36
313.1 K, 24011 kPa, x2 = 0.9698 | 879.83
313.1 K, 25028 kPa, x2 = 0.0251 | 816.1
313.11 K, 1990 kPa, x2 = 0.0857 | 802.76
313.11 K, 3001 kPa, x2 = 0.0857 | 803.63
313.11 K, 4009 kPa, x2 = 0.0857 | 804.54
313.11 K, 5013 kPa, x2 = 0.0857 | 805.41
313.11 K, 6014 kPa, x2 = 0.0857 | 806.27
313.11 K, 7009 kPa, x2 = 0.0857 | 807.15
313.11 K, 8011 kPa, x2 = 0.0857 | 807.98
313.11 K, 9009 kPa, x2 = 0.0857 | 808.79
313.11 K, 10011 kPa, x2 = 0.0857 | 809.65
313.11 K, 10994 kPa, x2 = 0.0857 | 810.46
313.11 K, 12007 kPa, x2 = 0.0857 | 811.26
313.11 K, 13022 kPa, x2 = 0.0857 | 812.06
313.11 K, 13999 kPa, x2 = 0.0857 | 812.83
313.11 K, 15014 kPa, x2 = 0.0857 | 813.63
313.11 K, 16013 kPa, x2 = 0.0857 | 814.38
313.11 K, 16994 kPa, x2 = 0.0857 | 815.12
313.11 K, 18005 kPa, x2 = 0.0857 | 815.89
313.11 K, 19008 kPa, x2 = 0.0857 | 816.61
313.11 K, 20010 kPa, x2 = 0.0857 | 817.4
313.11 K, 20990 kPa, x2 = 0.0857 | 818.09
313.11 K, 22028 kPa, x2 = 0.0857 | 818.85
313.11 K, 22900 kPa, x2 = 0.0857 | 819.47
313.11 K, 23996 kPa, x2 = 0.0857 | 820.3
313.11 K, 25047 kPa, x2 = 0.0857 | 821.11
313.15 K, 9101 kPa, x2 = 0.4972 | 830.36
313.15 K, 10085 kPa, x2 = 0.4972 | 831.83
313.15 K, 11056 kPa, x2 = 0.4972 | 833.28
313.15 K, 12062 kPa, x2 = 0.4972 | 834.75
313.15 K, 13043 kPa, x2 = 0.4972 | 836.14
313.15 K, 14050 kPa, x2 = 0.4972 | 837.54
313.15 K, 15053 kPa, x2 = 0.4972 | 838.9
313.15 K, 16037 kPa, x2 = 0.4972 | 840.22
313.15 K, 17055 kPa, x2 = 0.4972 | 841.56
313.15 K, 18037 kPa, x2 = 0.4972 | 842.85
313.15 K, 19023 kPa, x2 = 0.4972 | 844.11
313.15 K, 20041 kPa, x2 = 0.4972 | 845.39
313.15 K, 21003 kPa, x2 = 0.4972 | 846.61
313.15 K, 22068 kPa, x2 = 0.4972 | 847.91
313.15 K, 23079 kPa, x2 = 0.4972 | 849.14
313.15 K, 24016 kPa, x2 = 0.4972 | 850.27
313.15 K, 25033 kPa, x2 = 0.4972 | 851.48
313.16 K, 10073 kPa, x2 = 0.5965 | 836.7
313.16 K, 10087 kPa, x2 = 0.8663 | 805.12
